Source: paper PMC7915026, “Sulfaguanidine Hybrid with Some New Pyridine-2-One Derivatives: Design, Synthesis, and Antimicrobial Activity against Multidrug-Resistant Bacteria as Dual DNA Gyrase and DHFR Inhibitors” (Antibiotics, 2021)
Values after ≈ are worked out from the molar mass of the structure shown. Read-outs that look alike come from different tables or passages of the source.

Assays:
P. aeruginosa ATCC 27853 [1] = experiment: MIC and MBC determination; assay type: cell-based; details: Pseudomonas aeruginosa, ATCC27853, P. aeruginosa
S. aureus ATCC 29213 [2] = experiment: MIC and MBC determination; assay type: cell-based; details: Staphylococcus aureus, ATCC29213, S. aureus
S. aureus DNA gyrase = S. aureus DNA gyrase (Staphylococcus aureus, UniProt P0A0K8+P20831); experiment: In vitro DNA gyrase supercoiling enzymatic assay; assay type: biochemical
[3] = test system: F. oxysporum (RCMB 008002); experiment: MIC and MFC determination; assay type: cell-based
E. coli ATCC 25922 [4] = experiment: MIC and MBC determination; assay type: cell-based; details: Escherichia coli, ATCC25922, E. coli
B. subtilis ATCC 6633 [5] = experiment: MIC and MBC determination; assay type: cell-based; details: Bacillus subtilis, ATCC6633, B. subtilis
B. subtilis ATCC 6633 [6] = experiment: Inhibition zone, paper disk/agar diffusion; assay type: cell-based; details: B. subtilis; Na = no activity
From the text: (§1) The antimicrobial activity performed at the bacteriology laboratory, Botany and Microbiology Department, Faculty of Science, Al-Azhar University, Cairo, Egypt. The inhibition zone (IZ) of the tested derivatives expressed as the diameter (mm) according to the agar plate diffusion method.

E. coli ATCC 25922 [7] = experiment: Inhibition zone, paper disk/agar diffusion; assay type: cell-based; details: E. coli; Na = no activity
From the text: as §1

P. aeruginosa ATCC 27853 [8] = experiment: Inhibition zone, paper disk/agar diffusion; assay type: cell-based; details: P. aeruginosa; Na = no activity
From the text: as §1

E. faecalis ATCC 29212 [9] = experiment: Inhibition zone, paper disk/agar diffusion; assay type: cell-based; details: E. faecalis; Na = no activity
From the text: as §1

[10] = test system: F. oxysporum (RCMB 008002); experiment: Inhibition zone, paper disk/agar diffusion; assay type: cell-based; details: Na = no activity
From the text: as §1

S. aureus ATCC 29213 [11] = experiment: Inhibition zone, paper disk/agar diffusion; assay type: cell-based; details: S. aureus; Na = no activity
From the text: as §1

E. coli ATCC BAA-196 [12] = experiment: Inhibition zone against multidrug-resistant bacteria; assay type: cell-based; details: MDRB E. coli ATCC BAA-196
From the text: (§2) Norfloxacin was used as a positive control for the multidrug resistance study.
as §1

S. aureus ATCC 33591 [13] = experiment: as above; assay type: cell-based; details: MDRB S. aureus ATCC 33591
From the text: as §2, §1

[14] = test system: P. aeruginosa ATCC BAA-2111; experiment: as above; assay type: cell-based; details: MDRB P. aeruginosa ATCC BAA-2111
From the text: as §2, §1

S. aureus ATCC 43300 [15] = experiment: as above; assay type: cell-based; details: MDRB S. aureus ATCC 43300
From the text: as §2, §1

E. faecalis ATCC 29212 [16] = experiment: MIC and MBC determination; assay type: cell-based; details: Enterococcus faecalis, ATCC29212, E. faecalis
[17] = test system: Salmonella typhi (S. typhi ATCC 6539); experiment: microbe, parasite or virus in culture; assay type: cell-based; details: Salmonella enterica, Salmonella typhi
E. coli ATCC BAA-196 [18] = experiment: MIC and MBC against multidrug-resistant strains; assay type: cell-based; details: E. coli ATCC BAA-196
From the text: as §2
(§3) The experiment was repeating for three-times.

S. aureus ATCC 33591 [19] = experiment: MIC and MBC against multidrug-resistant strains; assay type: cell-based; details: Staphylococcus aureus, ATCC33591, S. aureus ATCC 33591
From the text: as §2, §3

[20] = test system: P. aeruginosa ATCC BAA-2111; experiment: MIC and MBC against multidrug-resistant strains; assay type: cell-based; details: P. aeruginosa ATCC BAA-2111
From the text: as §2, §3

S. aureus ATCC 43300 [21] = experiment: MIC and MBC against multidrug-resistant strains; assay type: cell-based; details: Staphylococcus aureus, ATCC43300, S. aureus ATCC 43300
From the text: as §2, §3

C. albicans (ATCC 10231) = experiment: MIC and MFC determination; assay type: cell-based

S. aureus DNA gyrase, sequence (P20831 whole entry): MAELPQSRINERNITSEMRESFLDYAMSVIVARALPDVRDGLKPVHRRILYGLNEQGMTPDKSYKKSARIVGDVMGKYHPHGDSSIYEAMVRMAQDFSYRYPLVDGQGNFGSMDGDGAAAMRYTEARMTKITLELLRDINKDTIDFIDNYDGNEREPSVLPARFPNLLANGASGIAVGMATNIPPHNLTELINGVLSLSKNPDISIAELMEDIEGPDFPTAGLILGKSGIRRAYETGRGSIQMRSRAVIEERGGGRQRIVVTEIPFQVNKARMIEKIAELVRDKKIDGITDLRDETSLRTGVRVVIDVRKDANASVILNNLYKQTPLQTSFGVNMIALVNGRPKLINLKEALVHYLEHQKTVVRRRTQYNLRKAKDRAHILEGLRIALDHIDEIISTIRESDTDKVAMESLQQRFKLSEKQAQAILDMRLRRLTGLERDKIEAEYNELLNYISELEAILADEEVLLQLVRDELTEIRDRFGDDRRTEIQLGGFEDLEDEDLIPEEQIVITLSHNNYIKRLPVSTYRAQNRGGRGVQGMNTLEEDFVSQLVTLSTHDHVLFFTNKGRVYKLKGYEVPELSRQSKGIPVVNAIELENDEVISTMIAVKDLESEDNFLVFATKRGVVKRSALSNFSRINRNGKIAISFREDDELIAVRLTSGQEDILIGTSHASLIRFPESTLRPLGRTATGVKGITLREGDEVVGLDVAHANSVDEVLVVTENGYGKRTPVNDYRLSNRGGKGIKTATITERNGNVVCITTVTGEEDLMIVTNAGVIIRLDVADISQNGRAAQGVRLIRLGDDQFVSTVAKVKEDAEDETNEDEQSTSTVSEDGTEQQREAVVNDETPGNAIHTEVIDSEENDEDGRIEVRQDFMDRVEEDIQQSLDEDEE
S. aureus DNA gyrase, sequence (P0A0K8 whole entry): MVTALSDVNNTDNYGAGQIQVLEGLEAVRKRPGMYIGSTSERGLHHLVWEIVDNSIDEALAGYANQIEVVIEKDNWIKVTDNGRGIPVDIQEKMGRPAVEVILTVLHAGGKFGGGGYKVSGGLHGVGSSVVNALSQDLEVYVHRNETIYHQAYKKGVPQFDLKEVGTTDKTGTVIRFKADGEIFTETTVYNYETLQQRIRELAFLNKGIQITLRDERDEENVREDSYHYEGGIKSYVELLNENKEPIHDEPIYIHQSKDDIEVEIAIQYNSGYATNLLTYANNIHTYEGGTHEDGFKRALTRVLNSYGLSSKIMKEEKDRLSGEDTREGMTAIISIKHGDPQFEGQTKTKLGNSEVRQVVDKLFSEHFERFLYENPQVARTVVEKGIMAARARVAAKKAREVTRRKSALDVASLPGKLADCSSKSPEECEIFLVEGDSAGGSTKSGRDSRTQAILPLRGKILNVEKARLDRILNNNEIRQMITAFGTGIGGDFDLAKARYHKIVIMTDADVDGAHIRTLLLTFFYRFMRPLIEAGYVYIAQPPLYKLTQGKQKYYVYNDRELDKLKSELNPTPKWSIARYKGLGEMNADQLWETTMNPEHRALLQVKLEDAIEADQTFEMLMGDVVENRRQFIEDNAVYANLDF

COc1ccc(/C=C(\C#N)C(=O)Nc2ccc(S(=O)(=O)NC(=N)N)cc2)cc1 [Compound 2b, N-(4-(N-Carbamimidoylsulfamoyl)phenyl)-2-cyano-3-(4-methoxyphenyl) acrylamide]
MBC (P. aeruginosa ATCC 27853 [1]; read-out: MBC): 133 ± 1.02 µM (≈ 53.1 µg/mL) | MIC (P. aeruginosa ATCC 27853 [1]; read-out: MIC): 78.2 ± 1.24 µM (≈ 31.2 µg/mL) | MBC (S. aureus ATCC 29213 [2]; read-out: MBC): 78.2 ± 0.87 µM (≈ 31.2 µg/mL) | MIC (S. aureus ATCC 29213 [2]; read-out: MIC): 39.1 ± 1.67 µM (≈ 15.6 µg/mL) | IC50 (S. aureus DNA gyrase): 29.1 ± 1.93 µM | MFC/MIC [3]: <2 | MFC ([3]; Fusarium oxysporum, RCMB008002, read-out: MFC): 222.3 ± 1.65 µM (≈ 88.8 µg/mL) | MIC ([3]; Fusarium oxysporum, RCMB008002, read-out: MIC): 139 ± 1.53 µM (≈ 55.5 µg/mL) | MBC (E. coli ATCC 25922 [4]; read-out: MBC): 219.1 ± 2.14 µM (≈ 87.5 µg/mL) | MIC (E. coli ATCC 25922 [4]; read-out: MIC): 156 ± 2.65 µM (≈ 62.5 µg/mL) | MBC (B. subtilis ATCC 6633 [5]; read-out: MBC): 35.2 ± 1.25 µM (≈ 14 µg/mL) | MIC (B. subtilis ATCC 6633 [5]; read-out: MIC): 19.6 ± 0.39 µM (≈ 7.81 µg/mL) | Mean Diameter of the Inhibition Zone (B. subtilis ATCC 6633 [6]): 25 ± 0.87 mm | Mean Diameter of the Inhibition Zone (E. coli ATCC 25922 [7]): 23 ± 0.2 mm | Mean Diameter of the Inhibition Zone (P. aeruginosa ATCC 27853 [8]): 21 ± 0.55 mm | Mean Diameter of the Inhibition Zone (E. faecalis ATCC 29212 [9]): 24 ± 0.35 mm | Mean Diameter of the Inhibition Zone [10]: 17 ± 0.50 mm | Mean Diameter of the Inhibition Zone (S. aureus ATCC 29213 [11]): 21 ± 0.3 mm | Mean Diameter of Inhibition Zone (E. coli ATCC BAA-196 [12]): 22 ± 0.85 mm | Mean Diameter of Inhibition Zone (S. aureus ATCC 33591 [13]): 21 ± 0.11 mm | Mean Diameter of Inhibition Zone [14]: 19 ± 0.16 mm | Mean Diameter of Inhibition Zone (S. aureus ATCC 43300 [15]): 20 ± 0.34 mm | MBC (E. faecalis ATCC 29212 [16]; read-out: MBC): 46.3 ± 0.74 µM (≈ 18.5 µg/mL) | MIC (E. faecalis ATCC 29212 [16]; read-out: MIC): 23.1 ± 0.61 µM (≈ 9.25 µg/mL) | MBC ([17]; read-out: MBC): 70.4 ± 0.85 µM (≈ 28.1 µg/mL) | MIC ([17]; read-out: MIC): 39.1 ± 0.36 µM (≈ 15.6 µg/mL) | MBC (E. coli ATCC BAA-196 [18]): 9.38 ± 0.74 µM (≈ 3.75 µg/mL) | MIC (E. coli ATCC BAA-196 [18]): 4.69 ± 0.45 µM (≈ 1.87 µg/mL) | MBC (E. coli ATCC BAA-196 [18]; Escherichia coli, ATCCBAA196, read-out: MBC): 9.38 µM (≈ 3.75 µg/mL) | MIC (E. coli ATCC BAA-196 [18]; Escherichia coli, ATCCBAA196, read-out: MIC): 4.69 µM (≈ 1.87 µg/mL) | MBC (S. aureus ATCC 33591 [19]; read-out: MBC): 18.8 ± 0.21 µM (≈ 7.5 µg/mL) | MIC (S. aureus ATCC 33591 [19]; read-out: MIC): 9.38 ± 0.35 µM (≈ 3.75 µg/mL) | MBC [20]: 18.77 ± 0.87 µM (≈ 7.5 µg/mL) | MIC [20]: 9.38 ± 0.47 µM (≈ 3.75 µg/mL) | MBC ([20]; Pseudomonas aeruginosa, ATCCBAA2111, read-out: MBC): 18.8 µM (≈ 7.5 µg/mL) | MIC ([20]; Pseudomonas aeruginosa, ATCCBAA2111, read-out: MIC): 9.38 µM (≈ 3.75 µg/mL) | MBC (S. aureus ATCC 43300 [21]; read-out: MBC): 39.1 ± 0.54 µM (≈ 15.6 µg/mL) | MIC (S. aureus ATCC 43300 [21]; read-out: MIC): 19.6 ± 0.52 µM (≈ 7.81 µg/mL) | MFC/MIC (C. albicans (ATCC 10231)): <2 | MFC (C. albicans (ATCC 10231); Candida albicans, ATCC10231, read-out: MFC): 133 ± 1.65 µM (≈ 53.1 µg/mL) | MIC (C. albicans (ATCC 10231); Candida albicans, ATCC10231, read-out: MIC): 78.2 ± 0.95 µM (≈ 31.2 µg/mL)
